{"source": "patent US9789066B2", "about": "“Process for making tablet using radiofrequency and lossy coated particles” (JOHNSON & JOHNSON CONSUMER INC., priority 2014, dated 2017)", "test": "Dielectric measurement (e′, e″, Q value) by Slotted Line Method at 27 MHz", "assay_type": "physicochemical", "conditions": "raw material", "source_text": "The property of permittivity is the measure of the resistance to forming an electric field. For purposes of comparing materials in air, it is often convenient to describe the permittivity of material in air where the permittivity is more specifically called “relative permittivity” or ? r. This is a complex number represented by the following equation: ? r=e'-je'' where e' (the real portion of the complex number) is the dielectric constant (energy storage) and e'' (the imaginary portion of the complex number) is the dielectric loss or dissipation factor (energy dissipated as heat). The ratio of dielectric loss (e'') over the dielectric constant (e') is called the loss tangent (tan δ) or power factor. […] The Q value is affected by physical and chemical properties such as density (porosity/particle size), moisture (conductivity), temperature, and molecular polarizability. The measurements obtained by this method can eliminate the need to measure and evaluate these properties independently. […] The Q values were measured using a HP […] Slotted Line as sample holder (carriage removed) connected to Agilent […] to ports A and B (transmission mode). […] This process is referred to as the “Slotted Line Method.” Unless otherwise stated, the Slotted line method was used for the calculation of e', e'', and Q value herein with the frequency range set to 26-28 MHz (31 points resolution) and values of e' and e'' were recorded from the 27 MHz data point."}
{"compound": "OC[C@@H](O)[C@@H](O[C@H]1O[C@H](CO)[C@@H](O)[C@H](O)[C@H]1O)[C@H](O)[C@@H](O)CO", "note": "[Maltitol (SweetPearl DC300), Maltitol]", "values": [{"measurement": "Loss Tangent", "value": 0.0022}, {"measurement": "e′", "value": 1.6214}, {"measurement": "e″", "value": 0.0035}]}
